Results on 7 compounds are retold here after article PMC4170737 (Bioorganic & medicinal chemistry letters, 2014).

SMILES strings stand for the structures. pIC50: −log10 of the molar value.

Data set [1] can be described thus: Hepatic microsome stability, mouse. Particulars: for Hepatic Microsome Stability: mouse (first or only value of cell).
Data set [2] can be described thus: Hepatic microsome stability, human. To be noted: for Hepatic Microsome Stability: human (first or only value of cell).
A short description of data set [3]: PAMPA permeability.
Data set [4] is described as follows: Plasma stability, human.
Data set [5] in a line: Plasma protein binding, mouse.
A short description of data set [6]: Plasma stability, mouse.
Data set [7] in a line: Plasma protein binding, human.
Data set [8] deals with T1, human PMI (phosphomannose isomerase) (Homo sapiens, UniProt P34949).
T1 sequence (P34949 1-423): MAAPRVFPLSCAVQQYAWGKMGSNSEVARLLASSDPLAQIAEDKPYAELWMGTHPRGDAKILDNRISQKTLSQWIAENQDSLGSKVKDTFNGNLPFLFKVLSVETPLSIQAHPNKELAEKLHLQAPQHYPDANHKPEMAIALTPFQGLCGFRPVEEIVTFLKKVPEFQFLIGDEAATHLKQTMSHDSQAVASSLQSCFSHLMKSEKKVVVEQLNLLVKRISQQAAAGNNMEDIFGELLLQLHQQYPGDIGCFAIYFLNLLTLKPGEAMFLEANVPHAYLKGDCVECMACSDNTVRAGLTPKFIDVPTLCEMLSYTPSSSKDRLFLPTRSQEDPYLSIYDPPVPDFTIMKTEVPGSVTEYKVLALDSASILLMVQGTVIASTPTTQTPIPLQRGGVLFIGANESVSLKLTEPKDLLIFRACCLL

Data set [9] deals with T2, human PMM2 (Homo sapiens, UniProt O15305).
T2 sequence (O15305 1-246): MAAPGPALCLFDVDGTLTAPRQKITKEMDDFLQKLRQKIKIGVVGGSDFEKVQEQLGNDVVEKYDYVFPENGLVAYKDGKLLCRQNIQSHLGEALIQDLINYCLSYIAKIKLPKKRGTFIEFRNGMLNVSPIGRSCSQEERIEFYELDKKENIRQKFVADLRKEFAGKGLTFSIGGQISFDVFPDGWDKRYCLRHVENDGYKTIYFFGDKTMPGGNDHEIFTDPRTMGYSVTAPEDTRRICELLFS
Nature of the data set: biochemical.

For data set [10], the target named is T3, TNAP (Homo sapiens, UniProt P05186).
T3 sequence (P05186 18-502 limits assumed): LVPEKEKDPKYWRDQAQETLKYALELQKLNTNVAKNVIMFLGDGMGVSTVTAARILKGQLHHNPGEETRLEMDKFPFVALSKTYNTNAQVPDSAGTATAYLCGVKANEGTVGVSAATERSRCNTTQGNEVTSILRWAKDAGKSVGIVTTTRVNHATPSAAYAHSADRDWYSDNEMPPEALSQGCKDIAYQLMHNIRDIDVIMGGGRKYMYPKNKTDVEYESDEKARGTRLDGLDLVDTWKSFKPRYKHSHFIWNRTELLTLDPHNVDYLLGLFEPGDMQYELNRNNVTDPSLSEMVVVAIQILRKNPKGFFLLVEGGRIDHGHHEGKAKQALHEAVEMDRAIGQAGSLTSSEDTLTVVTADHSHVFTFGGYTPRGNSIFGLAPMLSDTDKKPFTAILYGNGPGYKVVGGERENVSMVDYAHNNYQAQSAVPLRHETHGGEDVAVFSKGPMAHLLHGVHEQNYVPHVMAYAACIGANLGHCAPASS

In data set [11] the target is T2, human PMM2.
In data set [12] the test system is mevalonate pathway in streptococcus pneumonia. Particulars: ref PubChem AID1028; cited from earlier work.
Setting [13] is: 1× PBS, pH 7.4 alone, human column (second value of cell).
Setting [14] is: human plasma: 1× PBS, pH 7.4, 1:1 (first value of cell).
Setting [15] is: 1× PBS, pH 7.4 alone, mouse column (second value of cell).
[16] abbreviates: mouse plasma: 1× PBS, pH 7.4, 1:1 (first value of cell).

Turning to `COC(=O)c1cccc(-n2sc3ccccc3c2=O)c1` [Compound 2o], the “Hepatic Microsome Stability” value in [1] came out at 45.9 % Remaining at 1hr; in data set [2], 72.4 % Remaining at 1hr. Further, the “Hepatic Microsome Stability (NADPH minus)” value in data set [1] (mouse, NADPH minus (second value of cell)) came out at 44.6 % Remaining at 1hr; in [2] (human, NADPH minus (second value of cell)), 31.5 % Remaining at 1hr. The Papp in data set [3] (PAMPA Permeability, donor pH 5.0, acceptor pH 7.4) was found to be 1290 ×10⁻⁶ cm/s; in data set [3] (PAMPA Permeability, donor pH 6.2, acceptor pH 7.4) it was 1230 ×10⁻⁶ cm/s; in data set [3] (pH 7.4, PAMPA Permeability, donor pH 7.4, acceptor pH 7.4), 1300 ×10⁻⁶ cm/s. Besides, the “Plasma Stability” value is 49.3 % Remaining at 3hrs in data set [4] (setting [13]), 15.4 % Remaining at 3hrs in [4] (setting [14]), 55.2 % Remaining at 3hrs in data set [6] (setting [15]) and 59.6 % Remaining at 3hrs in [6] (setting [16]). For the same compound, the “Plasma Protein Binding” value in [5] (1 μM) is 48.0 % Bound; in data set [5] (10 μM) it was 37.6 % Bound; in data set [7] (1 μM), 41.2 % Bound; in data set [7] (10 μM) it was 57.3 % Bound.
On to `CN(C)C(=O)c1cccc(-n2sc3ccccc3c2=O)c1` [Compound 2q], for which the “Activity at PMI (in words)” value in [8] is listed as “no activity”. Also, the “Hepatic Microsome Stability” value in [1] was determined as 56.6 % Remaining at 1hr; in [2] it was 45.7 % Remaining at 1hr. For the same compound, the pIC50 in data set [9] was less than 4.30. For the same compound, the “Inhibitory activity against TNAP (in words)” value in data set [10] is given as “devoid of any significant inhibitory activity”. Further, the “Plasma Stability” value in data set [4] (setting [13]) is given as 60.0 % Remaining at 3hrs; in data set [4] (setting [14]), 18.9 % Remaining at 3hrs; in [6] (setting [15]) it was 56.9 % Remaining at 3hrs; in data set [6] (setting [16]), 76.2 % Remaining at 3hrs. Further, the results for the “Plasma Protein Binding” value in data set [5] (1 μM), in [5] (10 μM) and in [7] (1 μM) were 48.0 % Bound, 46.7 % Bound and 41.3 % Bound, respectively. Moreover, the “Activity at PMM2 (in words)” value in data set [11] is “no activity”. In [12], the “Activity in screen for inhibitors of the mevalonate pathway (in words)” value was “weak activity”.
Take `O=C(O)c1cccc(-n2sc3ccccc3c2=O)c1` [Compound 2n]: the “Hepatic Microsome Stability” value in [1] and in data set [2] was 100 % Remaining at 1hr each time. Moreover, the “Plasma Stability” value in data set [4] (setting [13]) worked out at 55.5 % Remaining at 3hrs; in data set [4] (setting [14]), 50.2 % Remaining at 3hrs; in data set [6] (setting [15]), 71.2 % Remaining at 3hrs; in [6] (setting [16]), 100 % Remaining at 3hrs. For the same compound, the “Plasma Protein Binding” value in [5] (1 μM) is 18.8 % Bound; in data set [5] (10 μM) it was 30.1 % Bound; in data set [7] (10 μM) it was “n.d. / 59.4 % Bound”. In [11], the “Activity at PMM2 (in words)” value is listed as “no activity”.
With `O=c1c2ccccc2sn1-c1ccc(F)c(Cl)c1` [Compound 2m], the “Activity at PMI (in words)” value in [8] was “inactive”. Besides, the “Activity at PMM2 (in words)” value in [11] was “inactive”.
Turning to `CCOC(=O)c1ccc(-n2sc3ccccc3c2=O)cc1` [Compound 2p], the “Activity at PMI (in words)” value in data set [8] is on record as “essentially devoid of activity”. Moreover, the “Activity at PMM2 (in words)” value in [11] is on record as “essentially devoid of activity”.
In the case of `CN(C)S(=O)(=O)c1cccc(-n2sc3ccccc3c2=O)c1` [Compound 2s], the “Hepatic Microsome Stability” value stood at 100 % Remaining at 1hr in [1] and 72.4 % Remaining at 1hr in [2]. The “Plasma Stability” value is 32.3 % Remaining at 3hrs in data set [4] (setting [13]), 11.4 % Remaining at 3hrs in data set [4] (setting [14]), 40.0 % Remaining at 3hrs in [6] (setting [15]) and 65.3 % Remaining at 3hrs in data set [6] (setting [16]). For the same compound, the “Plasma Protein Binding” value is 35.6 % Bound in data set [5] (1 μM), 34.1 % Bound in data set [5] (10 μM) and “n.d. / 56.5 % Bound” in [7] (10 μM).
As to `CCN(CC)S(=O)(=O)c1cccc(-n2sc3ccccc3c2=O)c1` [Compound 2t], in data set [8], the “Activity at PMI (in words)” value was “devoid of activity”. In addition, the “Activity at PMM2 (in words)” value in [11] is on record as “devoid of activity”.
